Assay results from patent publication US8829007B2 (priority 2009, dated 2014).
Structures can show the parent of a compound that is named as a salt. Where two headings read alike, the source gives them in different places.

Columns and labels:
[1] = system: influenza A virus (A/PR/8/34); test: microbe, parasite or virus in culture; type: cell-based
[2] = system: A/PR/8/34 influenza virus; test: microbe, parasite or virus in culture; type: cell-based
[3] = Influenza A virus, PR/8, MDCK, MDCK cells infected with A/PR/8/34, survival of infected cells, class symbols, read-out: IC50 (mean all)
[4] = Influenza A virus, PR/8, MDCK, MDCK cells infected with A/PR/8/34, replication of influenza virus (viral RNA, bDNA), class symbols, read-out: EC50 (mean all)
[5] = mean all, MDCK cells infected with A/PR/8/34, cell protection (CPE), read-out: IC50
[6] = mean all, bDNA viral RNA in MDCK cells infected with A/PR/8/34, read-out: EC50
[7] = Influenza A virus, PR/8, MDCK, MDCK cells infected with A/PR/8/34, cell protection (CPE), read-out: IC50 (mean all)
[8] = Influenza A virus, PR/8, MDCK, MDCK cells infected with A/PR/8/34, bDNA viral RNA, read-out: EC50 (mean all)
[9] = Influenza A virus, PR/8, MDCK, CPE assay, A/PR/8/34 infected MDCK cells, class symbols, read-out: IC50 (mean all)
[10] = Influenza A virus, PR/8, MDCK, bDNA assay, A/PR/8/34 influenza virus replication in MDCK cells, class symbols, read-out: EC50 (mean all)
[11] = Influenza A virus, PR/8, MDCK, mean all, A/PR/8/34 infected MDCK cells, cell protection (CPE), read-out: IC50
[12] = Influenza A virus, PR/8, mean all, A/PR/8/34 influenza virus replication, bDNA, read-out: EC50
[13] = Influenza A virus, PR/8, MDCK, mean all, A/PR/8/34 infected MDCK cells, CPE assay, read-out: IC50
[14] = Influenza A virus, PR/8, MDCK, mean all, A/PR/8/34 influenza virus in MDCK cells, bDNA assay, read-out: EC50
[15] = Influenza A virus, PR/8, MDCK, MDCK cells, A/PR/8/34, ATP readout, mean all, read-out: Cell Flu, MDCK protection, ATP (All: IC50: uM)(Mean (All))
[16] = Influenza A virus, PR/8, 30 h, HA(−) 30 hr, A/PR/8, bDNA, mean all, read-out: Cell Influenza HA(−) 30 hr A/PR/8 bDNA:bDNA EC50 uM(Mean (All))

Q: What does the source list for CCNC(=O)N1CCOCC1CNc1nc(-c2c[nH]c3ncc(Cl)cc23)ncc1F (stereo not drawn) [Compound 535, 3-((2-(5-chloro-1H-pyrrolo[2,3-b]pyridin-3-yl)-5-fluoropyrimidin-4-ylamino)methyl)-N-ethylmorpholine-4-carboxamide]?
A: IC50 [1, 3]: 5 to 20 µM; EC50 [2, 4]: > 10 µM

Q: Which IC50 [1, 5] does the source give for O=C(O)C1CCCC(Nc2nc(-c3c[nH]c4ncc(Cl)cc34)ncc2F)C1 (stereo not drawn) [Compound 696] here?
A: < 5 µM

Q: And the EC50 [2, 6]?
A: < 5 µM

Q: Which IC50 [1, 7] does the source give for O=C(c1ccc(F)c(F)c1)N1CCC[C@H](CNc2nc(-c3c[nH]c4ncc(Cl)cc34)ncc2F)C1 [Compound 85, (R)-(3-((2-(5-chloro-1H-pyrrolo[2,3-b]pyridin-3-yl)-5-fluoropyrimidin-4-ylamino)methyl)piperidin-1-yl)(3,4-difluorophenyl)methanone] here?
A: 5 to 20 µM

Q: And the EC50 [2, 8]?
A: < 5 µM

Q: What does the source list for CC1(C(=O)N[C@@H]2CCC[C@H](Nc3nc(-c4c[nH]c5ncc(Cl)cc45)ncc3F)C2)COC1 [Compound 635, N-[(1R,3S)-3-[[2-(5-chloro-1H-pyrrolo[2,3-b]pyridin-3-yl)-5-fluoro-pyrimidin-4-yl]amino]cyclohexyl]-3-methyl-oxetane-3-carboxamide hydrochloride]?
A: IC50 [1, 9]: < 5 µM; EC50 [2, 10]: < 5 µM

Q: How did the IC50 [1, 9] turn out when O=C(N[C@@H]1CCC[C@H](Nc2nc(-c3c[nH]c4ncc(Cl)cc34)ncc2F)C1)C1CCOCC1 [Compound 636, N-[(1R,3S)-3-[[2-(5-chloro-1H-pyrrolo[2,3-b]pyridin-3-yl)-5-fluoro-pyrimidin-4-yl]amino]cyclohexyl]tetrahydropyran-4-carboxamide hydrochloride] was run?
A: < 5 µM

Q: And the EC50 [2, 10]?
A: < 5 µM

Q: Which results are given for COCCC(=O)N[C@@H]1CCC[C@H](Nc2nc(-c3c[nH]c4ncc(Cl)cc34)ncc2F)C1 [Compound 611]?
A: IC50 [1, 9]: < 5 µM; EC50 [2, 10]: < 5 µM

Q: Which results are given for N=C(N)N1CCC[C@H](Nc2nc(-c3c[nH]c4ncc(Cl)cc34)ncc2F)C1 [Compound 881]?
A: IC50 [1, 11]: > 10 µM; EC50 [2, 12]: > 3.3 µM

Q: CN(C)C(=O)C(C)(C)N1CCC[C@H](Nc2nc(-c3c[nH]c4ncc(Cl)cc34)ncc2F)C1 [Compound 600] was tested. Which IC50 [1, 9] did it give?
A: < 5 µM

Q: And the EC50 [2, 10]?
A: < 5 µM

Q: With O=C(Nc1cccs1)N1CCC[C@H](CNc2nc(-c3c[nH]c4ncc(Cl)cc34)ncc2F)C1 [Compound 129, (R)-3-((2-(5-chloro-1H-pyrrolo[2,3-b]pyridin-3-yl)-5-fluoropyrimidin-4-ylamino)methyl)-N-(thiophen-2-yl)piperidine-1-carboxamide] as the compound, how does the IC50 [1, 7] read?
A: < 5 µM

Q: And the EC50 [2, 8]?
A: < 5 µM

Q: With CCCCNC(=O)N1CCC[C@H](Nc2nc(-c3c[nH]c4ncc(Cl)cc34)ncc2F)C1 [Compound 323] as the compound, how does the IC50 [1, 13] read?
A: > 20 µM

Q: What about the EC50 [2, 14] of the same compound?
A: < 5 µM

Q: C=CCCC(=O)N1CCCC[C@@H]1CNc1nc(-c2c[nH]c3ncc(Cl)cc23)ncc1F [Compound 279, (R)-1-(2-((2-(5-chloro-1H-pyrrolo[2,3-b]pyridin-3-yl)-5-fluoropyrimidin-4-ylamino)methyl)piperidin-1-yl)pent-4-en-1-one] was tested. Which IC50 [1, 7] did it give?
A: < 5 µM

Q: What about the EC50 [2, 8] of the same compound?
A: < 5 µM

Q: What does the source list for CNC(=O)C(C)N1CCCC(Nc2nc(-c3c[nH]c4ncc(Cl)cc34)ncc2F)C1 [Compound 606, 2-((S)-3-((2-(5-chloro-1H-pyrrolo[2,3-b]pyridin-3-yl)-5-fluoropyrimidin-4-ylamino)piperidin-1-yl)-N-methylpropanamide]?
A: IC50 [1, 9]: < 5 µM; EC50 [2, 10]: < 5 µM

Q: Which results are given for “(R)—N-tert-butyl-3-((2-(5-chloro-1H-pyrrolo[2,3-b]pyridin-3-yl)-5-fluoropyrimidin-4-ylamino)methyl)piperidine-1-carboxamide [Compound 117]”?
A: IC50 ([1]; read-out: IC50 (mean all)): < 5 µM; EC50 ([2]; read-out: EC50 (mean all)): < 5 µM

Q: Which results are given for N#CC1(C(=O)N[C@@H]2CCC[C@H](Nc3nc(-c4c[nH]c5ncc(F)cc45)ncc3F)C2)CC1 [Compound 871]?
A: IC50 [1, 11]: < 5 µM; EC50 [2, 12]: < 5 µM

Q: Which results are given for O=S(=O)(c1ccccc1)N1CCC[C@H](CNc2nc(-c3c[nH]c4ncc(Cl)cc34)ncc2F)C1 [Compound 87, (R)-2-(5-chloro-1H-pyrrolo[2,3-b]pyridin-3-yl)-5-fluoro-N-((1-(phenylsulfonyl)piperidin-3-yl)methyl)pyrimidin-4-amine]?
A: IC50 [1, 7]: < 5 µM; EC50 [2, 8]: < 5 µM

Q: O=c1[nH]c(=O)n([C@@H]2CCC[C@H](Nc3nc(-c4c[nH]c5ncc(Cl)cc45)ncc3F)C2)o1 [Compound 796] was tested. Which IC50 ([1]; read-out: IC50) did it give?
A: < 5 µM

Q: And the EC50 ([2]; mean all, A/PR/8/34 influenza virus replication, bDNA, read-out: EC50)?
A: < 5 µM

Q: Which IC50 [1, 15] does the source give for O=C(O[C@H]1CCC[C@@H](Nc2nc(-c3c[nH]c4ncc(F)cc34)ncc2F)C1)N1CC[C@H](F)C1 [Compound 1151, (S)-(1S,3R)-3-((5-fluoro-2-(5-fluoro-1H-pyrrolo[2,3-b]pyridin-3-yl)-pyrimidin-4-yl)amino)cyclohexyl 3-fluoropyrrolidine-1-carboxylate] here?
A: < 5 µM

Q: And the EC50 [2, 16]?
A: < 5 µM

Q: Which IC50 ([1]; CPE assay, A/PR/8/34 infected MDCK cells, class symbols, read-out: IC50 (mean all)) does the source give for Fc1cnc(-c2c[nH]c3ncc(Cl)cc23)nc1NC1CCCN(CC2CCCCO2)C1 (stereo not drawn) [Compound 663] here?
A: < 5 µM

Q: And the EC50 ([2]; bDNA assay, A/PR/8/34 influenza virus replication in MDCK cells, class symbols, read-out: EC50 (mean all))?
A: < 5 µM

Q: What does the source list for CN(C)CC(=O)NC1CCCC(Nc2nc(-c3c[nH]c4ncc(Cl)cc34)ncc2F)C1 (stereo not drawn) [Compound 725]?
A: IC50 [1, 5]: < 5 µM; EC50 [2, 6]: < 5 µM

Q: Which IC50 [1, 15] does the source give for O=C(O)c1coc(N[C@@H]2CCC[C@H](Nc3nc(-c4c[nH]c5ncc(F)cc45)ncc3F)C2)n1 [Compound 1144, 2-((1R,3S)-3-(5-fluoro-2-(5-fluoro-1H-pyrrolo[2,3-b]pyridin-3-yl)pyrimidin-4-ylamino)cyclohexylamino)oxazole-4-carboxylic acid] here?
A: < 5 µM

Q: What about the EC50 [2, 16] of the same compound?
A: < 5 µM

Q: What does the source list for CCNC(=O)N1CCC[C@H](Nc2nc(-c3c[nH]c4ncc(Cl)cc34)ncc2F)C1 [Compound 438]?
A: IC50 [1, 13]: < 5 µM; EC50 [2, 14]: < 5 µM

Q: Which IC50 [1, 5] does the source give for COCC(=O)NC1CCCC(Nc2nc(-c3c[nH]c4ncc(Cl)cc34)nc(C(C)(C)O)c2F)C1 (stereo not drawn) [Compound 715] here?
A: < 5 µM

Q: And the EC50 [2, 6]?
A: < 5 µM

Q: For O=C1NCCCC[C@@H]1Nc1nc(-c2c[nH]c3ncc(Cl)cc23)ncc1F [Compound 417], which IC50 [1, 13] is on record?
A: < 5 µM

Q: What about the EC50 [2, 14] of the same compound?
A: < 5 µM

Q: For O=C(c1nccs1)N1CCCC(CNc2nc(-c3c[nH]c4ncc(Cl)cc34)ncc2F)C1 (stereo not drawn) [Compound 186], which IC50 [1, 7] is on record?
A: < 5 µM

Q: What about the EC50 [2, 8] of the same compound?
A: < 5 µM

Q: What does the source list for CCC(=O)NC1CCCC(Nc2nc(-c3c[nH]c4ncc(Cl)cc34)ncc2F)C1 (stereo not drawn) [Compound 683]?
A: IC50 [1, 5]: < 5 µM; EC50 [2, 6]: < 5 µM

Q: How did the IC50 [1, 3] turn out when COC(=O)N[C@@H]1CCC[C@H](Nc2nc(-c3c[nH]c4ncc(Cl)cc34)ncc2F)C1 [Compound 570, methyl N-[(1R,3S)-3-[[2-(5-chloro-1H-pyrrolo[2,3-b]pyridin-3-yl)-5-fluoro-pyrimidin-4-yl]amino]cyclohexyl]carbamate] was run?
A: < 5 µM

Q: And the EC50 [2, 4]?
A: < 5 µM

Q: O[C@H]1[C@H](O)CCC[C@H]1Nc1nc(-c2c[nH]c3ncc(Cl)cc23)ncc1F [Compound 616] was tested. Which IC50 [1, 9] did it give?
A: > 10 µM

Q: What about the EC50 [2, 10] of the same compound?
A: > 3.3 µM

Q: Which IC50 ([1]; Influenza A virus, PR/8, MDCK, read-out: IC50 (mean all)) does the source give for CC#CCOC(=O)N1CCC[C@@H](CNc2nc(-c3c[nH]c4ncc(Cl)cc34)ncc2F)C1 [Compound 30, (S)-but-2-ynyl 3-((2-(5-chloro-1H-pyrrolo[2,3-b]pyridin-3-yl)-5-fluoropyrimidin-4-ylamino)methyl)piperidine-1-carboxylate] here?
A: 5 to 20 µM

Q: And the EC50 ([2]; Influenza A virus, PR/8, MDCK, read-out: EC50 (mean all))?
A: < 5 µM

Q: What does the source list for CNC(=O)N[C@H]1CCC[C@@H](Nc2nc(-c3c[nH]c4ncc(Cl)cc34)ncc2F)C1 (relative stereo) [Compound 455, 1-[cis-3-[[2-(5-chloro-1H-pyrrolo[2,3-b]pyridin-3-yl)-5-fluoro-pyrimidin-4-yl]amino]cyclohexyl]-3-methyl-urea]?
A: IC50 [1, 13]: < 5 µM; EC50 [2, 14]: < 5 µM

Q: Which IC50 ([1]; MDCK cells infected with A/PR/8/34, survival of infected cells, class symbols, read-out: IC50 (mean all)) does the source give for CC(=O)N1CCCC(CNc2ccnc(-c3c[nH]c4ncc(Cl)cc34)n2)C1 (stereo not drawn) [Compound 490] here?
A: < 5 µM

Q: And the EC50 ([2]; MDCK cells infected with A/PR/8/34, replication of influenza virus (viral RNA, bDNA), class symbols, read-out: EC50 (mean all))?
A: < 5 µM

Q: Which results are given for CC(=O)N1CCC[C@@H](CNc2nc(-c3c[nH]c4ncc(Cl)cc34)ncc2F)C1 [Compound 37, (S)-1-(3-((2-(5-chloro-1H-pyrrolo[2,3-b]pyridin-3-yl)-5-fluoropyrimidin-4-ylamino)methyl)piperidin-1-yl)ethanone]?
A: IC50 [1, 7]: < 5 µM; EC50 [2, 8]: < 5 µM

Q: COC(=O)NC1CCCC(Nc2nc(-c3c[nH]c4ncc(Cl)cc34)nc(C(C)(C)C)c2F)C1 (stereo not drawn) [Compound 688] was tested. Which IC50 [1, 5] did it give?
A: < 5 µM

Q: What about the EC50 [2, 6] of the same compound?
A: < 5 µM

Q: O[C@@H]1[C@@H](O)CCC[C@H]1Nc1nc(-c2c[nH]c3ncc(Cl)cc23)ncc1F [Compound 624] was tested. Which IC50 [1, 9] did it give?
A: < 5 µM

Q: And the EC50 [2, 10]?
A: 5 to 10 µM
